Test results from US20240131022A1 (published 2024).

Experiments:
μ-receptor = μ-receptor (Homo sapiens, UniProt P35372); test: cell-based
k-receptor = k-receptor (Homo sapiens, UniProt P41145); test: cell-based; conditions: read-out: k-receptor activation (IC50 or %)
δ-receptor = δ-receptor (Homo sapiens, UniProt P41143); test: Functional profile in CHO transfected cells, δ-receptor inhibition; type: cell-based
[1] = Stability in brain homogenate; conditions: within the time frame of the study

Chain of δ-receptor (P41143 whole entry): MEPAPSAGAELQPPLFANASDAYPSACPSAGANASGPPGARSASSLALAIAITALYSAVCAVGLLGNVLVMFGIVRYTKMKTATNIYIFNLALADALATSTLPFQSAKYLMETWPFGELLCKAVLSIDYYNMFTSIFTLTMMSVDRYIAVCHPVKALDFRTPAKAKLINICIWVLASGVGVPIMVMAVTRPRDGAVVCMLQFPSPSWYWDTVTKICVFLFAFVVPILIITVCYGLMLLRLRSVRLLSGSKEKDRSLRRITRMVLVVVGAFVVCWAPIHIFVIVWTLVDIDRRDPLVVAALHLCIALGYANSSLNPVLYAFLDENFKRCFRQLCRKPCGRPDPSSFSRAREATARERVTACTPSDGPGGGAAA
Chain of μ-receptor (P35372 whole entry): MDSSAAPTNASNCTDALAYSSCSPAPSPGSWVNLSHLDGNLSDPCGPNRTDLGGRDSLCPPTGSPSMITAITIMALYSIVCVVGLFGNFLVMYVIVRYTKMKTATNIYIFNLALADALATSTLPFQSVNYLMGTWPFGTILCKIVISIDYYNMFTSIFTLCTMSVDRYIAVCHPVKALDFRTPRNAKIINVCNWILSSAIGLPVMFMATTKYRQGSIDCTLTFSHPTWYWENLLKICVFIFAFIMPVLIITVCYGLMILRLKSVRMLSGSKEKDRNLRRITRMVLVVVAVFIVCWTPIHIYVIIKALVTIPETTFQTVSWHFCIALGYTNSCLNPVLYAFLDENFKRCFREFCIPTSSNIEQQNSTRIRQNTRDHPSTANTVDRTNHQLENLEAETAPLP
Chain of k-receptor (P41145 whole entry): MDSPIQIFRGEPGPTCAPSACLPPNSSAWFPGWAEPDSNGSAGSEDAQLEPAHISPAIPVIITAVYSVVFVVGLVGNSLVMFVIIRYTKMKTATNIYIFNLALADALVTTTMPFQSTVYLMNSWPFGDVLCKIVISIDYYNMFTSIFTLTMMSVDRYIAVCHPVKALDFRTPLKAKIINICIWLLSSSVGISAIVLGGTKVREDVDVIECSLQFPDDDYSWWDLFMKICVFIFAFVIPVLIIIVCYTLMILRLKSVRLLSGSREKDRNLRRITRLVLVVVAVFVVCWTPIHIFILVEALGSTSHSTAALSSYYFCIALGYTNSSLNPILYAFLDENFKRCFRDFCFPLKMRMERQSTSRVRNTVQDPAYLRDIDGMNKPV

Row | SMILES | inhibition at 1 µM (μ-receptor; read-out: μ-receptor inhibition (IC50 or %)) [%] | activation at 1 µM (k-receptor) [%] | IC50 (δ-receptor) [µM] | intact in brain homogenate [1] [%] | IC50 (μ-receptor) [nM]
1 | C/C=C/C=C/C(=O)Oc1ccc2c3c1OC1C(O)CCC4(O)C(C2)N(CC2CCC2)CCC314 (stereo not shown) [NB33, 3-hexadienoate derivative of nalbuphine] | 82.8 | 22.3 | > 10 | 65±6 | –
2 | C=CCN1CCC23c4c5ccc(OC(=O)/C=C/C=C/C)c4OC2C(=O)CCC3(O)C1C5 (stereo not shown) [NX90, 3-hexadienoate derivative of naloxone] | – | – | > 10 | 85±13 | 137 ± 12
